Where no end group is shown, it is not given here.
Assays:
[1] = system: V. harveyi; assay: URDA of non-heated and heated peptides; assay type: cell-based, Vibrio harveyi; details: non-heated and after 100 °C for 10 min
[2] = Calcein leakage assay, neutral liposomes; details: DOPC LUVs 95 µM, 20 mM TES pH 7.4, 25 °C, 3 min, peptide 20 μM
Procedure: (§1) For leakage experiments, large unilamellar vesicles (LUVs) (DOPC or DOPC-DOPG, 3:1) with encapsulated calcein were prepared using the extrusion method. The desired mixtures of phospholipids were dried in glass tubes under nitrogen and then lyophilized overnight to obtain lipid films. The dry lipid films were suspended in leakage buffer (20 mM TES buffer containing 150 mM NaCl, pH 7.4) and 70 mM calcein, and then vortexed occasionally to disperse the lipids. The suspension was freeze–thawed in liquid nitrogen for 10 cycles and extruded 10 times through 0.1-μm polycarbonate membrane filters in an Avanti mini extruder apparatus (Avanti Polar Lipids, Inc., Alabaster, AL, USA). […]
(§2) Leakage of calcein from liposomes was determined as described by Park et al.. […] The increase in the fluorescence of calcein when leaking out of liposomes was monitored at an emission wavelength of 520 nm and an excitation wavelength at 490 nm. The change in fluorescence intensity was measured for 3 min after peptide addition. […] The percentage of dye release was calculated as follows: Dye leakage (%) = 100 × (F − F0)/(Ft − F0) Where F is the fluorescence intensity caused by the peptide and F0 and Ft are those with buffer alone and with 10% Triton X-100, respectively.

[3] = Calcein leakage assay, acidic liposomes; details: DOPC/DOPG (3:1) LUVs 95 µM, 20 mM TES pH 7.4, 25 °C, 3 min, peptide 20 μM
Procedure: as §1, §2

Substance	Antimicrobial activity against V. harveyi (URDA) [1]	Leakage of entrapped calcein from neutral liposomes at 20 μM [2]	Leakage of entrapped calcein from acidic liposomes at 20 μM [3]
KLVKTQLKVLK [ofLBP 4N]	did not show any antimicrobial activity		
MKLVKTWLKVLK-NH2 [ofLBP 6A]	significant activity		
Piscidin 1 [reference compound]		complete leakage	complete leakage

From publication PMC4210897, “Antimicrobial Activity of Peptides Derived from Olive Flounder Lipopolysaccharide Binding Protein/Bactericidal Permeability-Increasing Protein (LBP/BPI)” (Marine Drugs, 2014)
